Consider 18 compounds from ChEMBL document CHEMBL1137466, “5'-Phenyl-3'H-spiro[indoline-3,2'-[1,3,4]thiadiazol]-2-one inhibitors of ADAMTS-5 (aggrecanase-2)” (Bioorg Med Chem Lett, 2007).

By IC50 is commonly meant the concentration that gives 50% inhibition.

Where only a bound is given, the exact number is not on record here.

Experiment [1] deals with T1, A disintegrin and metalloproteinase with thrombospondin motifs 5 (Homo sapiens, UniProt Q9UNA0).
T1 sequence (Q9UNA0 whole entry): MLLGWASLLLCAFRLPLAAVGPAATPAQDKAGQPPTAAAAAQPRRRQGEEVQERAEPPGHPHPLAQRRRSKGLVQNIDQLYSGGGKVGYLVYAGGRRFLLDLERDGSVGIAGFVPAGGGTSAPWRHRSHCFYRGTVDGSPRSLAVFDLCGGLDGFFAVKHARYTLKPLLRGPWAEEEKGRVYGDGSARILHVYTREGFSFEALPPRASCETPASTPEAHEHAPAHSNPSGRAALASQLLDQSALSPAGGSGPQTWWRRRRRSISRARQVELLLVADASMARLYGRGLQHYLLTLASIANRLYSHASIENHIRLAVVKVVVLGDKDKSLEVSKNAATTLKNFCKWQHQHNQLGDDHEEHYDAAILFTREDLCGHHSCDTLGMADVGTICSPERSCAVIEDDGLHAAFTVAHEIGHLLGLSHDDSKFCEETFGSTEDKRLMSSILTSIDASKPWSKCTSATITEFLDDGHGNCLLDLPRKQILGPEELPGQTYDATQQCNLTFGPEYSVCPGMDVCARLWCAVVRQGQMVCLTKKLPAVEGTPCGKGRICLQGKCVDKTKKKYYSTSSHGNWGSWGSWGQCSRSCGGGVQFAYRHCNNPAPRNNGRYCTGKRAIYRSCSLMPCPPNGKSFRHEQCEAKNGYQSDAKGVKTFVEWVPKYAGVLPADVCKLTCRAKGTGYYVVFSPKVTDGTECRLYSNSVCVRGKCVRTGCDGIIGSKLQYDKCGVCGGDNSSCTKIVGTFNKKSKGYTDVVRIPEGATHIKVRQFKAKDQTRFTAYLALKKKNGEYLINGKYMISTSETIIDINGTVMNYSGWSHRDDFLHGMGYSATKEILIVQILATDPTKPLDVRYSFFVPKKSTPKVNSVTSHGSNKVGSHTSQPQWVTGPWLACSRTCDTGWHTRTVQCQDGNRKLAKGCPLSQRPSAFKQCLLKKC
Briefly: Inhibition of ADAMTS5 by FRET assay.

The target of experiment [2] is T2, A disintegrin and metalloproteinase with thrombospondin motifs 4 (Homo sapiens, UniProt O75173).
T2 sequence (O75173 whole entry): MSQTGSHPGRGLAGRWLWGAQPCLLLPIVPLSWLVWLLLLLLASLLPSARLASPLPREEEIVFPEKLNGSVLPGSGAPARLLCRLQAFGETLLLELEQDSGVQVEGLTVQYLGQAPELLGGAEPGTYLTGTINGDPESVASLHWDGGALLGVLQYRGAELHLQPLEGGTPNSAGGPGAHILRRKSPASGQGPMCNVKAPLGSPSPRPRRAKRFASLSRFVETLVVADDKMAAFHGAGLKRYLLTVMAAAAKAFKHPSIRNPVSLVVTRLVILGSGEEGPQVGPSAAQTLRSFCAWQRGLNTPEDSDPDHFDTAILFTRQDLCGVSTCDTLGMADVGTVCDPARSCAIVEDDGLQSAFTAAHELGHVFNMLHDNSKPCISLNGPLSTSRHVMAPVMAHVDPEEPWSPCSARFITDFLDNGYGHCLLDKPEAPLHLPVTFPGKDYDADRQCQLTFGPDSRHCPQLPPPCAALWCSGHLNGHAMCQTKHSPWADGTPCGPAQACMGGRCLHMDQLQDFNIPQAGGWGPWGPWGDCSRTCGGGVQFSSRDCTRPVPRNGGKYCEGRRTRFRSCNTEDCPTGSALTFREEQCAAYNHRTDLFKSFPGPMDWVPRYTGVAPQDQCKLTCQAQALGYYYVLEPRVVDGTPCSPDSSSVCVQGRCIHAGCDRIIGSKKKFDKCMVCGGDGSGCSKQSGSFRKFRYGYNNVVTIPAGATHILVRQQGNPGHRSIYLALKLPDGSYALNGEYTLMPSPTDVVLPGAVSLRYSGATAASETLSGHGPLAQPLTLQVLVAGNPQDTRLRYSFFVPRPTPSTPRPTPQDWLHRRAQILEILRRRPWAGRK
Briefly: Inhibition of ADAMTS4.

Experiment [3] concerns the target Macrophage metalloelastase (Homo sapiens, UniProt P39900). Briefly: Inhibition of MMP12.
The next experiment concerns the target Collagenase 3 (Homo sapiens, UniProt P45452). Briefly: Inhibition of MMP13.

Sequence of Macrophage metalloelastase (P39900 whole entry): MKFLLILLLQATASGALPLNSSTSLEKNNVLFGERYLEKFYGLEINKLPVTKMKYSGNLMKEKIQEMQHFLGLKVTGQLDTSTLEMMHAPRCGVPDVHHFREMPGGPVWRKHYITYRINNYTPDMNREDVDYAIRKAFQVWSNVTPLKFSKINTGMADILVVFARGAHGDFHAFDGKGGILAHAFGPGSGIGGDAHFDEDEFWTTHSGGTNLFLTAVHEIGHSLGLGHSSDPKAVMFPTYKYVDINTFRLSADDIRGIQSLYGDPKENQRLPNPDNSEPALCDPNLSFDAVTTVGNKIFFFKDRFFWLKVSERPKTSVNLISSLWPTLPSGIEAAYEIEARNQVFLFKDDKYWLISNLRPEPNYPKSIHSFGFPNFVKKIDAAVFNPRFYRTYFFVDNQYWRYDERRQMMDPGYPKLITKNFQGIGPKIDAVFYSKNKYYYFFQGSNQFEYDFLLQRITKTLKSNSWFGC

In experiment [1], `Cc1ccc(C2=NNC3(S2)C(=O)Nc2ccc(C)cc23)cc1` (stereo unspecified) yielded an IC50 of 3 µM.

`COc1ccc(C2=NNC3(S2)C(=O)Nc2cc(Cl)ccc23)cc1` (stereo unspecified) yielded an IC50 in experiment [1] of 1.2 µM.

Compound `CCc1ccc2c(c1)C1(NN=C(c3ccc(OC)cc3)S1)C(=O)N2` (stereo unspecified) showed an IC50 in experiment [1] of 1.4 µM.

Take `COc1ccc(C2=NNC3(S2)C(=O)N(c2ccccc2C)c2ccc(C)cc23)cc1` (stereo unspecified): the IC50 was 10.5 µM in experiment [2], > 22 µM in experiment [3] and > 100 µM against Collagenase 3.

As for `COc1ccc(C2=NNC3(S2)C(=O)Nc2ccc(Cl)cc23)cc1` (stereo unspecified), in experiment [1], the IC50 was 2 µM.

In experiment [1], `Cc1ccc(C2=NNC3(S2)C(=O)Nc2ccccc23)cc1` (stereo unspecified) registered an IC50 of 3.7 µM.

As to `COc1ccc(C2=NNC3(S2)C(=O)N(Cc2ccccc2)c2ccc(C)cc23)cc1` (stereo unspecified), the results for the IC50 (in experiment [3]; at Collagenase 3) were > 22 µM and > 100 µM, respectively.

As to `COc1ccc(C2=NNC3(S2)C(=O)N(C)c2ccccc23)cc1` (stereo unspecified), the IC50 in experiment [1] was 7.5 µM.

`Cc1ccc(C2=NNC3(S2)C(=O)N(c2ccccc2C)c2ccc(C)cc23)cc1` (stereo unspecified) yielded an IC50 in experiment [1] of 1.2 µM.

In the case of `CCCc1cc2c(cc1C)C1(NN=C(c3ccc(OC)cc3)S1)C(=O)N2Cc1ccccc1` (stereo unspecified), the IC50 in experiment [1] came to 0.95 µM.

In the case of `Cc1ccc(C2=NNC3(S2)C(=O)N(C)c2ccccc23)cc1` (stereo unspecified), the IC50 in experiment [1] was 4.6 µM.

In the case of `CCc1ccc2c(c1)C1(NN=C(c3ccccc3)S1)C(=O)N2` (stereo unspecified), inhibition in experiment [1] was half-maximal at 9.6 µM (IC50).

In the case of `COc1ccc(C2=NNC3(S2)C(=O)N(Cc2ccccc2)c2ccccc23)cc1` (stereo unspecified), the IC50 is 0.87 µM in experiment [1], > 22 µM in experiment [2], 5.6 µM in experiment [3] and > 100 µM against Collagenase 3.

For `CCCc1ccc2c(c1)NC(=O)C21NN=C(c2ccc(OC)cc2)S1` (stereo unspecified), the IC50 in experiment [2] is > 22 µM; in experiment [3] it was 1.7 µM; on Collagenase 3, > 22 µM.

Consider `CC(C)N1C(=O)C2(NN=C(c3ccccc3)S2)c2ccccc21` (stereo unspecified), for which inhibition in experiment [1] was half-maximal at 3.1 µM (IC50).

Turning to `COc1ccc(C2=NNC3(S2)C(=O)Nc2ccc(C)cc23)cc1` (stereo unspecified), in experiment [1], the IC50 worked out at 2.5 µM.

`CCc1ccc2c(c1)C1(NN=C(c3ccc(C)cc3)S1)C(=O)N2` (stereo unspecified) registered an IC50 in experiment [1] of 1.9 µM.

Compound `O=C1Nc2ccccc2C12NN=C(c1ccccc1)S2` (stereo unspecified) gave an IC50 in experiment [1] of 24.2 µM.
